Assay: magnetic field-magnetization curve measured with MPMS7 (Quantum Design)
Type: physicochemical
Settings: 37 degrees Celsius (310 K)
Source text: Also, FIG. 8 is a graph showing the magnetic field-magnetization curves of the Mn salen complex, the Cr salen complex, and the Fe salen complex.

magnetism from magnetic field-magnetization curve: paramagnetic
SMILES: [Co+2].[O-]c1ccccc1C=NCCN=Cc1ccccc1[O-] [Co salen complex]

Source: patent publication US20140046021A1, “SELF-MAGNETIC METAL-SALEN COMPLEX COMPOUND” (IHI CORPORATION, priority 2011, published 2014)
